“And” between values parts separate entries of the source, which are not always exact repeats. Equal entries are not always repeated.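 Protocol summary: plate cells (96-well), add compound at 5 concentrations, incubate 48 h, interpolate endpoints linearly. GI50 = concentration required for 50% inhibition of growth. Definition used: TGI = concentration required for complete inhibition of growth.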
Columns and labels:
Assay in all cases: growth of human tumour cells (NCI), 48 h
TK-10 renal = test system: TK-10 renal
MALME-3M melanoma = test system: MALME-3M melanoma
HCT-116 colon = test system: HCT-116 colon
SK-MEL-28 melanoma = test system: SK-MEL-28 melanoma
SW-620 colon = test system: SW-620 colon
CAKI-1 renal = test system: CAKI-1 renal
MOLT-4 leukemia = test system: MOLT-4 leukemia
MDA-MB-435 = test system: MDA-MB-435
CCRF-CEM leukemia = test system: CCRF-CEM leukemia
HCC-2998 colon = test system: HCC-2998 colon

## COc1nc2c(c(=O)n1C)N[C@H]1[C@H](OC(C)=O)[C@@H](OC(C)=O)CO[C@H]1N2
TK-10 renal
  TGI: > 100 µM
MALME-3M melanoma
  TGI: > 100 µM
HCT-116 colon
  TGI: > 100 µM
SK-MEL-28 melanoma
  TGI: > 100 µM
SW-620 colon
  TGI: > 100 µM
CAKI-1 renal
  TGI: > 100 µM
MOLT-4 leukemia
  TGI: > 100 µM
MDA-MB-435
  TGI: > 100 µM

## Nc1nc(-c2ccccc2N=NN2CCCC2)nc2ccccc12
TK-10 renal
  TGI: 14.5 µM
MALME-3M melanoma
  TGI: 13.5 µM
CCRF-CEM leukemia
  TGI: 19.1 µM
HCT-116 colon
  TGI: 2.55 µM
SK-MEL-28 melanoma
  TGI: 25.2 µM
SW-620 colon
  TGI: 5.96 µM
CAKI-1 renal
  TGI: 18.5 µM
MOLT-4 leukemia
  TGI: 3.52 µM
MDA-MB-435
  TGI: 6.7 µM

## CC12N=NN(c3ccc([N+](=O)[O-])cc3)C1(O)c1ccccc1C2=O (configuration not stated)
TK-10 renal
  TGI: > 100 µM
MALME-3M melanoma
  TGI: > 100 µM
HCT-116 colon
  TGI: > 100 µM
SW-620 colon
  TGI: > 100 µM
HCC-2998 colon
  TGI: > 100 µM

## CC(=O)Nc1ccc(C(=O)NN2C(=O)C(Cl)C2c2ccc([N+](=O)[O-])cc2)cc1 (configuration not stated)
TK-10 renal
  TGI: > 100 µM
MALME-3M melanoma
  TGI: > 100 µM
CCRF-CEM leukemia
  TGI: > 100 µM
HCT-116 colon
  TGI: > 100 µM
SK-MEL-28 melanoma
  TGI: > 100 µM
SW-620 colon
  TGI: > 100 µM
CAKI-1 renal
  TGI: > 100 µM
MOLT-4 leukemia
  TGI: > 100 µM

## COC1OC(Cc2nnc(C)o2)C(OCc2ccccc2)C(OCc2ccccc2)C1OCc1ccccc1 (configuration not stated)
MALME-3M melanoma
  TGI: 38.9 µM
CCRF-CEM leukemia
  TGI: 52.7 µM
HCT-116 colon
  TGI: > 100 µM
SK-MEL-28 melanoma
  TGI: 45.3 µM
SW-620 colon
  TGI: > 100 µM
CAKI-1 renal
  TGI: > 100 µM
MOLT-4 leukemia
  TGI: 33 µM
MDA-MB-435
  TGI: 39.2 µM

## CC(=O)/C(=C/n1c(=S)[nH]c2ccccc21)C(=O)Nc1ccccc1C
TK-10 renal
  TGI: > 100 µM
HCT-116 colon
  TGI: > 100 µM
SK-MEL-28 melanoma
  TGI: > 100 µM
SW-620 colon
  TGI: > 100 µM
CAKI-1 renal
  TGI: > 100 µM
HCC-2998 colon
  TGI: > 100 µM
MOLT-4 leukemia
  TGI: > 100 µM
MDA-MB-435
  TGI: > 100 µM

## COc1cc2nc(-c3ccc4ccccc4c3)[nH]c(=O)c2cc1OC
MALME-3M melanoma
  TGI: > 100 µM
CCRF-CEM leukemia
  TGI: > 100 µM
HCT-116 colon
  TGI: > 100 µM
CAKI-1 renal
  TGI: > 100 µM
HCC-2998 colon
  TGI: > 100 µM
MOLT-4 leukemia
  TGI: > 100 µM

## Nc1cccc2c1C(=O)c1cccc(N)c1C2=O
TK-10 renal
  TGI: > 100 µM
MALME-3M melanoma
  TGI: > 100 µM
CCRF-CEM leukemia
  TGI: > 100 µM
HCT-116 colon
  TGI: > 100 µM
SK-MEL-28 melanoma
  TGI: > 100 µM
SW-620 colon
  TGI: > 100 µM
CAKI-1 renal
  TGI: > 100 µM
HCC-2998 colon
  TGI: > 100 µM
MOLT-4 leukemia
  TGI: > 100 µM

## O=[N+]([O-])c1ccc(S[C@@H]2[C@H]3c4c(-c5ccccc5)[nH]c(-c5ccccc5)c4[C@@H]2C[C@H]3Cl)cc1
TK-10 renal
  TGI: > 100 µM
MALME-3M melanoma
  TGI: 78.9 µM
HCT-116 colon
  TGI: 7.86 µM
SK-MEL-28 melanoma
  TGI: > 100 µM
SW-620 colon
  TGI: > 100 µM
CAKI-1 renal
  TGI: > 100 µM
MDA-MB-435
  TGI: 27.8 µM

## O=C(NCc1cccc(C(F)(F)F)c1)c1cc2sccc2nc1C(F)(F)F
TK-10 renal
  TGI: > 100 µM
MALME-3M melanoma
  TGI: > 100 µM
CCRF-CEM leukemia
  TGI: > 100 µM
HCT-116 colon
  TGI: > 100 µM
SK-MEL-28 melanoma
  TGI: > 100 µM
SW-620 colon
  TGI: > 100 µM
CAKI-1 renal
  TGI: > 100 µM
MOLT-4 leukemia
  TGI: > 100 µM
MDA-MB-435
  TGI: > 100 µM

## COc1cccc(CC(C)NCC(O)c2ccc(O)c(O)c2)c1 (configuration not stated)
TK-10 renal
  TGI: > 100 µM
MALME-3M melanoma
  TGI: > 100 µM
CCRF-CEM leukemia
  TGI: > 100 µM
HCT-116 colon
  TGI: > 100 µM
SK-MEL-28 melanoma
  TGI: > 100 µM
SW-620 colon
  TGI: > 100 µM
CAKI-1 renal
  TGI: > 100 µM
MOLT-4 leukemia
  TGI: 51.7 µM
MDA-MB-435
  TGI: > 100 µM

## Cc1ccc(C(C)(C)C[P+](C)(c2ccccc2)c2ccccc2)cc1
MALME-3M melanoma
  TGI: > 48.8 µM
CCRF-CEM leukemia
  TGI: > 79.3 µM
HCT-116 colon
  TGI: > 58.1 µM
SK-MEL-28 melanoma
  TGI: 66.4 µM
SW-620 colon
  TGI: > 100 µM
CAKI-1 renal
  TGI: > 69.2 µM
HCC-2998 colon
  TGI: > 70.3 µM
MOLT-4 leukemia
  TGI: 42.7 µM

## [Cl][Pt+2][Cl].[NH-]C1CCCCC1[NH-] (configuration not stated)
MALME-3M melanoma
  GI50: 10.2 µM and 3.39 µM and 1.14 µM
  TGI: 32.4 µM and 24 µM and 7.45 µM
CCRF-CEM leukemia
  GI50: 3190 nM and 2910 nM and 872 nM
  TGI: > 100 µM
HCT-116 colon
  TGI: > 100 µM and 16 µM
SK-MEL-28 melanoma
  TGI: 65.8 µM and 56.4 µM and 20.6 µM
SW-620 colon
  TGI: 44.1 µM and > 56.4 µM and 13.1 µM
CAKI-1 renal
  GI50: 1440 nM and 3520 nM and 769 nM
  TGI: > 53 µM and > 100 µM and 18.1 µM
HCC-2998 colon
  GI50: 42.6 µM and 17.2 µM and 4.67 µM
  TGI: > 100 µM and 24.2 µM
MOLT-4 leukemia
  TGI: > 51.2 µM and > 96.6 µM and 37.9 µM

## NC(=S)N/N=C\c1ccc(OCc2cccc(COc3ccc(/C=N/NC(N)=S)cc3)n2)cc1
TK-10 renal
  TGI: > 100 µM
MALME-3M melanoma
  TGI: > 100 µM
CCRF-CEM leukemia
  TGI: > 100 µM
HCT-116 colon
  TGI: > 100 µM
SK-MEL-28 melanoma
  TGI: > 100 µM
SW-620 colon
  TGI: > 100 µM
CAKI-1 renal
  TGI: > 100 µM
MOLT-4 leukemia
  TGI: > 100 µM
MDA-MB-435
  TGI: > 100 µM

## COC(=O)C1CCC(=O)N1C(=O)Cc1ccc(OC)cc1 (configuration not stated)
TK-10 renal
  TGI: > 100 µM
HCT-116 colon
  TGI: > 100 µM
SK-MEL-28 melanoma
  TGI: > 100 µM
SW-620 colon
  TGI: > 100 µM
CAKI-1 renal
  TGI: > 100 µM

## OCC1OC(n2cnc3cncnc32)C(O)C1O (configuration not stated)
MALME-3M melanoma
  TGI: 4.73 µM
CCRF-CEM leukemia
  TGI: > 26.1 µM
HCT-116 colon
  TGI: 1.23 µM
SK-MEL-28 melanoma
  TGI: 5.23 µM
SW-620 colon
  TGI: 1.84 µM
CAKI-1 renal
  TGI: 2.68 µM
HCC-2998 colon
  TGI: 2.84 µM
MOLT-4 leukemia
  TGI: 5.29 µM

## CC(C)=CCC/C(C)=C/CC/C(C)=C/Cc1c(O)c2ccccc2oc1=O
TK-10 renal
  TGI: > 100 µM
MALME-3M melanoma
  TGI: > 100 µM
CCRF-CEM leukemia
  TGI: > 100 µM
HCT-116 colon
  TGI: > 100 µM
SK-MEL-28 melanoma
  TGI: > 100 µM
SW-620 colon
  TGI: > 100 µM
HCC-2998 colon
  TGI: > 100 µM
MOLT-4 leukemia
  TGI: > 100 µM

## O=Cc1ccccc1OCCOc1cc(OCCOc2ccccc2C=O)c(OCCOc2ccccc2C=O)cc1OCCOc1ccccc1C=O
TK-10 renal
  TGI: 96.8 µM
MALME-3M melanoma
  TGI: > 100 µM
CCRF-CEM leukemia
  TGI: > 100 µM
HCT-116 colon
  TGI: > 71.2 µM
SK-MEL-28 melanoma
  TGI: > 100 µM
SW-620 colon
  TGI: > 100 µM
CAKI-1 renal
  TGI: > 100 µM
HCC-2998 colon
  TGI: > 100 µM
MOLT-4 leukemia
  TGI: > 100 µM

## Cc1cccc2c1[nH]c1[nH]c(=O)[nH]c(=O)c12
TK-10 renal
  TGI: > 100 µM
MALME-3M melanoma
  TGI: > 100 µM
CCRF-CEM leukemia
  TGI: > 100 µM
HCT-116 colon
  TGI: > 100 µM
SW-620 colon
  TGI: > 100 µM
CAKI-1 renal
  TGI: > 100 µM
MOLT-4 leukemia
  TGI: > 100 µM
MDA-MB-435
  TGI: > 100 µM

## Cc1ccccc1-n1c(C)nc2c1C(=O)c1ccccc1C2=O
TK-10 renal
  TGI: > 100 µM
MALME-3M melanoma
  TGI: 41.3 µM
CCRF-CEM leukemia
  TGI: > 100 µM
HCT-116 colon
  TGI: > 100 µM
SK-MEL-28 melanoma
  TGI: > 100 µM
SW-620 colon
  TGI: > 100 µM
CAKI-1 renal
  TGI: > 100 µM
HCC-2998 colon
  TGI: > 100 µM
MOLT-4 leukemia
  TGI: > 100 µM
